{"source": "patent US20090068290A1", "about": "“BIFEPRUNOX DOSES FOR TREATING SCHIZOPHRENIA” (priority 2006, published 2009)", "assay_type_in_all_cases": "in vivo, human", "key": {"[1]": {"system": "adult subjects with schizophrenia", "assay": "PANSS general psychopathology subscale score, Clinical Study Two", "details": "LOCF; for Change from Baseline in General Psychopathology Subscale Score, Mean (SD) / Change from Baseline in General Psychopathology Subscale Score, Median: Risperidone 6 mg, ITT population", "procedure": "Rating scale assessments were performed weekly, except for week 5, to measure the change from baseline to endpoint of the PANSS total score. Other assessments included: PANSS positive symptom subscale score, PANSS negative symptom subscale score, PANSS general pschopathology subscale score, BPRS total score, BPRS psychosis score, the CGI-S score, the CGI-I score, responder rates based on the PANSS total score, and the Calgary Depression Scale for Schizophrenia (CDSS). […]\nSubjects who completed this study had the option to continue in the long-term. […] Risperidone-treated subjects were titrated from 2 mg to 6 mg daily over a three-day period and were subsequently maintained at 6 mg/day for the remainder of the treatment period. […] Blood samples were also obtained at Screening/Baseline, Week 3, and Week 6 for clinical laboratory assessments."}, "[2]": {"system": "adult subjects with schizophrenia", "assay": "PANSS total score, Clinical Study One (6-week, risperidone-referenced)", "details": "for Change from Baseline in PANSS Total Score, Median / Change from Baseline in PANSS Total Score, Mean (S.D.): Risperidone 6 mg, ITT", "procedure": "There were five treatment groups in this study. […] Study medication was administered once daily. After Baseline measurements were performed, the titration phase was begun. Bifeprunox treated subjects were titrated up to 5 mg, 10 mg or 20 mg according to a standardized titration schedule (Day 1: 0.125 mg, Day 2: 0.25 mg, Day 3: 0.5 mg, Day 4: 1.0 mg, Day 5: 2.0 mg, Day 6: 5.0 mg, Day 7: 10.0 mg, Day 8: 20 mg). When the assigned dose was reached, subjects were maintained at that dose for the remainder of the six-week treatment period.\nTest Product. Dose and Mode of Administration: Bifeprunox tablets, total daily dose 0.125 mg to 20 mg administered orally using a once daily dosing regimen.\nThe change in the Positive and Negative Symptom Scale (PANSS) total score, from baseline to endpoint, was the primary outcome measure. Secondary efficacy measures included: PANSS positive, PANSS negative, PANSS general psychopathology (GPP) score, PANSS-derived Brief Psychiatric Rating Scale (BPRS) score, Clinical Global Impressions-Severity of Illness (CGI-S), CGI-Improvement (CGI-I) scores, and responder rates. Safety and tolerability evaluations included extrapyramidal symptoms (EPS), weight gain, lipid profile, and serum prolactin."}, "[3]": {"system": "adult subjects with schizophrenia", "assay": "PANSS general psychopathology subscale score, Clinical Study Three", "details": "LOCF; for Change from Baseline in PASS General Psychopathology Subscale Score, Mean (SD) / Change from Baseline in PASS General Psychopathology Subscale Score, Median: Olanzapine 15 mg, ITT population", "excerpt": "SECONDARY OBJECTIVES To assess the efficacy of bifeprunox in treating schizophrenia using the Positive Symptom sub-scale score of the PANSS, the Negative Symptom sub-scale score of the PANSS, the General Psychopathology sub-scale of the PANSS, Brief Psychiatric Rating Scale (BPRS) total score derived from the PANSS, BPRS psychosis score derived from the PANSS, the Clinical Global Impression Severity of Illness score (CGI-S), the Clinical Global Impression Improvement score (CGI-I), CGI-I responder rate, PANSS responder rate based on the PANSS total score, Calgary Depression Scale for Schizophrenia (CDSS), and Subject Satisfaction rating.\nThere were four treatment arms in this study, approximately 144 subjects per arm. […] After completing the Single-Blind Placebo Lead-in Period of at least three days, bifeprunox-treated subjects were titrated from 0.25 mg up to 20 mg/day or 30 mg/day according to a standardized titration scheme over a seven- or eight-day period, respectively. When the assigned dose was reached, subjects were maintained at that dose for the remainder of the six week treatment period. […] Subjects were hospitalized (if not already inpatients) after eligibility for study entry was verified, starting from the Screening Visit until at least 10 days after Baseline. Subjects could be hospitalized longer than 10 days if considered medically necessary by the Investigator. Rating scale assessments for efficacy and abnormal movement disorders were done weekly except for Week 5. […] Subject satisfaction with study medication was assessed at Week 6."}, "[4]": {"system": "adult subjects with schizophrenia", "assay": "PANSS responder rates, Clinical Study Three", "procedure": "There were four treatment arms in this study, approximately 144 subjects per arm. […] After completing the Single-Blind Placebo Lead-in Period of at least three days, bifeprunox-treated subjects were titrated from 0.25 mg up to 20 mg/day or 30 mg/day according to a standardized titration scheme over a seven- or eight-day period, respectively. When the assigned dose was reached, subjects were maintained at that dose for the remainder of the six week treatment period. […] Subjects were hospitalized (if not already inpatients) after eligibility for study entry was verified, starting from the Screening Visit until at least 10 days after Baseline. Subjects could be hospitalized longer than 10 days if considered medically necessary by the Investigator. Rating scale assessments for efficacy and abnormal movement disorders were done weekly except for Week 5. Safety assessments were performed at Screening, during treatment and at the end of the study. Subject satisfaction with study medication was assessed at Week 6. Samples of whole blood were obtained at Weeks 2, 4, and 6 for determination of bifeprunox in plasma.\nCLINICAL STUDY THREE. A PANSS responder was defined as a subject whose PANSS total score decreased by 20% or more from Baseline to Endpoint. As exploratory analyses, responder rates were also analyzed using a 30%, 35%, 40%, and 50% definition of responder."}}, "data": [{"smiles": "Cc1nc2n(c(=O)c1CCN1CCC(c3noc4cc(F)ccc34)CC1)CCCC2", "note": "[Risperidone, risperidone, reference compound]", "values": [{"measurement": "Change from Baseline in General Psychopathology Subscale Score, Mean (SD)", "setting": "[1]; Week 1", "result": "−3.9 (5.6)"}, {"measurement": "Change from Baseline in General Psychopathology Subscale Score, Median", "setting": "[1]; Week 1", "result": "−4"}, {"measurement": "Change from Baseline in General Psychopathology Subscale Score, Mean (SD)", "setting": "[1]; Week 2", "result": "−6.7 (7.3)"}, {"measurement": "Change from Baseline in General Psychopathology Subscale Score, Median", "setting": "[1]; Week 2", "result": "−6"}, {"measurement": "Change from Baseline in General Psychopathology Subscale Score, Mean (SD)", "setting": "[1]; Week 3", "result": "−7.6 (7.7)"}, {"measurement": "Change from Baseline in General Psychopathology Subscale Score, Median", "setting": "[1]; Week 3", "result": "−8"}, {"measurement": "Change from Baseline in General Psychopathology Subscale Score, Mean (SD)", "setting": "[1]; Week 4", "result": "−8.4 (8.5)"}, {"measurement": "Change from Baseline in General Psychopathology Subscale Score, Median", "setting": "[1]; Week 4", "result": "−9"}, {"measurement": "Change from Baseline in General Psychopathology Subscale Score, Mean (SD)", "setting": "[1]; Week 6/Endpoint", "result": "−8.6 (9.8)"}, {"measurement": "Change from Baseline in General Psychopathology Subscale Score, Median", "setting": "[1]; Week 6/Endpoint", "result": "−9"}, {"measurement": "mean change (SD) from Baseline to Endpoint in PANSS general psychopathology subscale score", "setting": "[1]; risperidone 6 mg, ITT", "result": "−8.6 (9.8)"}, {"measurement": "Change from Baseline in PANSS Total Score, Median", "setting": "[2]; Endpoint LOCF", "result": "−14"}, {"measurement": "Change from Baseline in PANSS Total Score, Mean (S.D.)", "setting": "[2]; Week 1, LOCF", "result": "−8.2 (11.1)"}, {"measurement": "Change from Baseline in PANSS Total Score, Median", "setting": "[2]; Week 1, LOCF", "result": "−7"}, {"measurement": "Change from Baseline in PANSS Total Score, Mean (S.D.)", "setting": "[2]; Week 2, LOCF", "result": "−13.1 (13.9)"}, {"measurement": "Change from Baseline in PANSS Total Score, Median", "setting": "[2]; Week 2, LOCF", "result": "−12"}, {"measurement": "Change from Baseline in PANSS Total Score, Mean (S.D.)", "setting": "[2]; Week 3, LOCF", "result": "−15.3 (14.1)"}, {"measurement": "Change from Baseline in PANSS Total Score, Median", "setting": "[2]; Week 3, LOCF", "result": "−13"}, {"measurement": "Change from Baseline in PANSS Total Score, Mean (S.D.)", "setting": "[2]; Week 4, LOCF", "result": "−14.4 (14.5)"}, {"measurement": "Change from Baseline in PANSS Total Score, Median", "setting": "[2]; Week 4, LOCF", "result": "−13"}, {"measurement": "all efficacy measures at endpoint compared to placebo", "setting": "[2]; risperidone 6 mg (Example 4)", "result": "statistically significant at endpoint compared to placebo for all efficacy measures"}, {"measurement": "separation of active reference from placebo", "setting": "[2]; risperidone 6 mg, 6 weeks", "result": "showed clear separation from the placebo group"}]}, {"smiles": "Cc1cc2c(s1)Nc1ccccc1N=C2N1CCN(C)CC1", "note": "[Olanzapine, olanzapine, reference compound]", "values": [{"measurement": "Change from Baseline in PASS General Psychopathology Subscale Score, Mean (SD)", "setting": "[3]; Week 1", "result": "−4.5 (6.2)"}, {"measurement": "Change from Baseline in PASS General Psychopathology Subscale Score, Median", "setting": "[3]; Week 1", "result": "−3"}, {"measurement": "Change from Baseline in PASS General Psychopathology Subscale Score, Mean (SD)", "setting": "[3]; Week 2", "result": "−7.2 (7.8)"}, {"measurement": "Change from Baseline in PASS General Psychopathology Subscale Score, Median", "setting": "[3]; Week 2", "result": "−6"}, {"measurement": "Change from Baseline in PASS General Psychopathology Subscale Score, Mean (SD)", "setting": "[3]; Week 3", "result": "−9.3 (8.3)"}, {"measurement": "Change from Baseline in PASS General Psychopathology Subscale Score, Median", "setting": "[3]; Week 3", "result": "−8"}, {"measurement": "Change from Baseline in PASS General Psychopathology Subscale Score, Mean (SD)", "setting": "[3]; Week 4", "result": "−9.6 (8.6)"}, {"measurement": "Change from Baseline in PASS General Psychopathology Subscale Score, Median", "setting": "[3]; Week 4", "result": "−9"}, {"measurement": "Change from Baseline in PASS General Psychopathology Subscale Score, Mean (SD)", "setting": "[3]; Week 6/Endpoint", "result": "−10.5 (9.4)"}, {"measurement": "Change from Baseline in PASS General Psychopathology Subscale Score, Median", "setting": "[3]; Week 6/Endpoint", "result": "−9"}, {"measurement": "mean change (SD) from Baseline to Endpoint in PANSS general psychopathology subscale score", "setting": "[3]; olanzapine 15 mg, ITT", "result": "−10.5 (9.4)"}, {"measurement": "PANSS 20% definition response rate No, %", "setting": "[4]; 15 mg, Week 6/Endpoint, LOCF", "result": 46, "unit": "%"}, {"measurement": "PANSS 20% definition response rate Yes, %", "setting": "[4]; 15 mg, Week 6/Endpoint, LOCF", "result": 54, "unit": "%"}, {"measurement": "20% PANSS responder rate", "setting": "[4]; olanzapine 15 mg, Endpoint LOCF", "result": 54, "unit": "%"}]}]}
